Results taken from patent publication US11654199B2 (BOLT BIOTHERAPEUTICS, INC., priority 2019, dated 2023).

How the values were obtained:
[1] = target: T1, human TLR8 (Homo sapiens, UniProt Q9NR97); experiment: HEK293 NFKB reporter assay, human TLR8; format: cell-based; settings: HEK293 NFKB reporter cells expressing human TLR8; read-out: HEK293 hTLR8 EC50
T1 construct: host or cells: HEK293 reporter cells
T1 sequence (Q9NR97 27-1041): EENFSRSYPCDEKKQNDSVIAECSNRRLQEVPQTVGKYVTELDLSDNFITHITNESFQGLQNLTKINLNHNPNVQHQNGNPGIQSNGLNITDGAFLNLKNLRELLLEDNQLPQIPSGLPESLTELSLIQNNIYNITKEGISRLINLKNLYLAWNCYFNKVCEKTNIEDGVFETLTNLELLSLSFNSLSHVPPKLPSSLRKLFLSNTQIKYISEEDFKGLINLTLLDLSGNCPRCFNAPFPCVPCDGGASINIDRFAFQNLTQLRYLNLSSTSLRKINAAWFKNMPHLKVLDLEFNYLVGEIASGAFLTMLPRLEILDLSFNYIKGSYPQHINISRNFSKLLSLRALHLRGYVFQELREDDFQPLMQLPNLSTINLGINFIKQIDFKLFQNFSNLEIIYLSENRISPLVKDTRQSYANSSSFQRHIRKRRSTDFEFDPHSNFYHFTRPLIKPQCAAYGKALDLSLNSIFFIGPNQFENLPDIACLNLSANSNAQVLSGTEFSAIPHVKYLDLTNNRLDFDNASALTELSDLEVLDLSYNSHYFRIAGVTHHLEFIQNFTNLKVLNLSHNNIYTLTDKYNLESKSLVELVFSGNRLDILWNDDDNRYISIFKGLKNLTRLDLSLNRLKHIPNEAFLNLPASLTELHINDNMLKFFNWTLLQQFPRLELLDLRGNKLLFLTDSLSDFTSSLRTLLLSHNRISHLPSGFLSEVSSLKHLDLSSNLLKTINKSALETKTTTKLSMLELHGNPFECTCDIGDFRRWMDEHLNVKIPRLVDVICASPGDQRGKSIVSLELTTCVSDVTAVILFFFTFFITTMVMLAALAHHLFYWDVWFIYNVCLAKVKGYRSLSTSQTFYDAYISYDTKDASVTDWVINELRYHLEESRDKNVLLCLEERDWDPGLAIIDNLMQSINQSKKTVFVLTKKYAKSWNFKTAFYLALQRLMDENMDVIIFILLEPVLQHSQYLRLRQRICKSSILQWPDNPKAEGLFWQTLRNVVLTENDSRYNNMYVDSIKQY
Procedure: (§1) Each compound was synthesized, purified, and characterized by mass spectrometry and shown to have the mass indicated. Additional experimental procedures are found in the Examples. Activity against HEK293 NFKB reporter cells expressing human TLR7 or human TLR8 was measured according to Example 202.
(§2) HEK293 reporter cells expressing human TLR7 or human TLR8 were purchased from Invivogen and vendor protocols were followed for cellular propagation and experimentation. Briefly, cells were grown to 80-85% confluence at 5% CO2 in DMEM supplemented with 10% FBS, Zeocin, and Blasticidin. Cells were then seeded in 96-well flat plates at 4×10^4 cells/well with substrate containing HEK detection medium and immunostimulatory molecules. Activity was measured using a plate reader at 620-655 nm wavelength.

[2] = target: T2, human TLR7 (Homo sapiens, UniProt Q9NYK1); experiment: HEK293 NFKB reporter assay, human TLR7; format: cell-based; settings: HEK293 NFKB reporter cells expressing human TLR7; read-out: HEK293 hTLR7 EC50
T2 construct: host or cells: HEK293 reporter cells
T2 sequence (Q9NYK1 27-1049): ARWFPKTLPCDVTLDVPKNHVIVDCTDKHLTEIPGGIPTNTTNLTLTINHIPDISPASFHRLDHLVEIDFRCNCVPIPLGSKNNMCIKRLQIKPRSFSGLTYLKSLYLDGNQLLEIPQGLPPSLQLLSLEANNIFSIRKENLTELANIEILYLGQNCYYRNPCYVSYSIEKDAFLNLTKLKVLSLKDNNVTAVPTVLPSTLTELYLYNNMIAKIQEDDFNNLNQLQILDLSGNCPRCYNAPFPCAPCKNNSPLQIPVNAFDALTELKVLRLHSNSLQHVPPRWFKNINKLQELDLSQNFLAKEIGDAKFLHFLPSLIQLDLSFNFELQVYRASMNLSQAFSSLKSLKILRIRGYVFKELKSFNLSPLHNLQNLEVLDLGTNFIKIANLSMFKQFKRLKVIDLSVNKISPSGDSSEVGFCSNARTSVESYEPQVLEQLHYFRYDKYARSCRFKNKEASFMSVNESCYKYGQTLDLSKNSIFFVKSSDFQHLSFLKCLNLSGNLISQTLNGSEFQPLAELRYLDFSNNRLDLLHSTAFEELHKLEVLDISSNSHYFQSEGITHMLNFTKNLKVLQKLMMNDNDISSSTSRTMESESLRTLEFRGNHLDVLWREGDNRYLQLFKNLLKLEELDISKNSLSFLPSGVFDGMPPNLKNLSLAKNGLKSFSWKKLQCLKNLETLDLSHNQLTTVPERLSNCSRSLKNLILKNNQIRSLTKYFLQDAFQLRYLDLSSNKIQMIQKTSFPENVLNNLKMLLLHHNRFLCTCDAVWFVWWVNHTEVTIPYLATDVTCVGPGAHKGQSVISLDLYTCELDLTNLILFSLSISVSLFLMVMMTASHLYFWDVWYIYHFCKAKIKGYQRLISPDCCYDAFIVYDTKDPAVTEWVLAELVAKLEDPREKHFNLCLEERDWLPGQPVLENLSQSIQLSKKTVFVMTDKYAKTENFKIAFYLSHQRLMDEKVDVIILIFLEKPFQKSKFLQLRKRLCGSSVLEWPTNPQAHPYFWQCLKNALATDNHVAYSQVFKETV
Procedure: as §1, §2

Compound	EC50 [1]	EC50 [2]
CCCN(CCC)C(=O)C1=Cc2sc(CN)cc2N=C(N)C1 [TAZ-84]	1370 nM	4950 nM
CCCN(NCC)C(=O)C1=Cc2sccc2N=C(N)C1 [TAZ-85]	4030 nM	> 9000 nM
CCCNN(CC)C(=O)C1=Cc2sccc2N=C(N)C1 [TAZ-86]	4920 nM	> 9000 nM
CCCN(C(=O)C1=Cc2sccc2N=C(N)C1)C(C)c1ccc(CN)cc1 (stereo not drawn) [TAZ-88]	2270 nM	> 9000 nM
CCCN(CCC)C(=O)C1=Cc2sc(CNC(=O)CCN)cc2N=C(N)C1 [TAZ-90]	3190 nM	909 nM
CCCN(CCC)C(=O)C1=Cc2sc(CNC(=O)CCNC(=O)OC(C)(C)C)cc2N=C(N)C1 [TAZ-91]	4150 nM	4280 nM
CCCN(CCC)C(=O)C1=Cc2sc(CNC(=O)CNC(=O)OC(C)(C)C)cc2N=C(N)C1 [TAZ-93]	3130 nM	4490 nM
CCCN(CCC)C(=O)C1=Cc2sc(CO)cc2N=C(N)C1 [TAZ-99]	3620 nM	> 9000 nM
CCCN(OCC(F)(F)F)C(=O)C1=Cc2sccc2N=C(N)C1 [TAZ-103]	1380 nM	3820 nM
CCCN(Cc1cnc(CN)c(C(F)(F)F)c1)C(=O)C1=Cc2sccc2N=C(N)C1 [TAZ-104]	1440 nM	3170 nM
CCCN(CCc1ccc(OC)cc1)C(=O)C1=Cc2sc(CCCCCNC(=O)OC(C)(C)C)cc2N=C(N)C1 [TAZ-106]	> 9000 nM	4730 nM
CCCN(CCc1ccc(OC)cc1)C(=O)C1=Cc2sc(CCCCCN)cc2N=C(N)C1 [TAZ-107]	6980 nM	3580 nM
CCCN(CCC)C(=O)C1=Cc2sc(CCCCCNC(=O)CCOC)cc2N=C(N)C1 [TAZ-108]	3470 nM	3850 nM
CCCN(C(=O)C1=Cc2sc(CCCCCN)cc2N=C(N)C1)C1CC1 [TAZ-122]	3240 nM	3350 nM
CCCN(CC1CC1)C(=O)C1=Cc2sc(CCCCCN)cc2N=C(N)C1 [TAZ-124]	1940 nM	1730 nM
CCCN(CCCNC(=O)OC(C)(C)C)C(=O)C1=Cc2sc(CCCCCN)cc2N=C(N)C1 [TAZ-133, tert-butyl (3-(5-amino-2-(5-aminopentyl)-N-propyl-6H-thieno[3,2-b]azepine-7-carboxamido)propyl)carbamate]	3010 nM	586 nM
CCCN(CCC)C(=O)C1=Cc2sc(CC(=O)OC)cc2N=C(N)C1 [TAZ-134]	3420 nM	4700 nM
CCCN(CCCNC(=O)C(C)(C)C)C(=O)C1=Cc2sc(CCCCCNC(=O)OC(C)(C)C)cc2N=C(N)C1 [TAZ-141]	3580 nM	380 nM
CCCN(Cc1ccc(CN(C)C)cc1C(F)(F)F)C(=O)C1=Cc2sc(CCCCCN)cc2N=C(N)C1 [TAZ-144]	2860 nM	1280 nM
CCCN(Cc1ccc(CN(C)C)c(C(F)(F)F)n1)C(=O)C1=Cc2sc(CCCCCN)cc2N=C(N)C1 [TAZ-145]	4010 nM	5940 nM
CCCN(OCCNC(=O)CC(C)(C)C)C(=O)C1=Cc2sc(CCCCCN)cc2N=C(N)C1 [TAZ-149]	2240 nM	534 nM
CCCN(OCCNC(=O)CC(C)(C)C)C(=O)C1=Cc2sc(CCCCCNC(=O)OC(C)(C)C)cc2N=C(N)C1 [TAZ-150]	1670 nM	1990 nM
CCCN(CCCNC(=O)OC1CCC1)C(=O)C1=Cc2sc(C#CC3CCNCC3)cc2N=C(N)C1 [TAZ-164]	3890 nM	476 nM
CCCN(CCCNC(=O)OC1CCC1)C(=O)C1=Cc2sc(CCC3CCNCC3)cc2N=C(N)C1 [TAZ-166]	3700 nM	802 nM
CCCN(CCCNC(=O)NCC)C(=O)C1=Cc2sc(CCCCCNC(=O)OC(C)(C)C)cc2N=C(N)C1 [TAZ-170]	3370 nM	282 nM
CCCN(CCCNC(=O)OC1CCC1)C(=O)C1=Cc2sc(CN)cc2N=C(N)C1 [TAZ-171]	3130 nM	5290 nM
CCCN(CCCNC(=O)OC1CCC1)C(=O)C1=Cc2sc(-c3cn[nH]c3)cc2N=C(N)C1 [TAZ-172]	3700 nM	153 nM
CCCN(OCC)C(=O)C1=Cc2sc(C#CC3CCNCC3)cc2N=C(N)C1 [TAZ-174]	1640 nM	5810 nM
CCCN(CCCNC(=O)OC1CCC1)C(=O)C1=Cc2sc(CC3CCN(C(=O)OC(C)(C)C)CC3)cc2N=C(N)C1 [TAZ-177]	3400 nM	882 nM

The next compounds have a lower EC50 [1] than those just listed; values first:

EC50 [1]	EC50 [2]	Compound
1250 nM	1240 nM	CCCN(CCCNC(=O)OCc1ccccc1)C(=O)C1=Cc2sc(CCCCCNC(=O)OC(C)(C)C)cc2N=C(N)C1 [TAZ-162]
930 nM	922 nM	CCCN(OCC)C(=O)C1=Cc2sc(CC3CN(C(=O)OC(C)(C)C)C3)cc2N=C(N)C1 [TAZ-184]
848 nM	5570 nM	CCCN(CCC)C(=O)C1=Cc2sc(CN3CCN(C)CC3)cc2N=C(N)C1 [TAZ-129]
840 nM	101 nM	CCCN(CCCNC(=O)OC1CCC1)C(=O)C1=Cc2sc(CC3CN(C(=O)OC(C)(C)C)C3)cc2N=C(N)C1 [TAZ-182]
633 nM	950 nM	CCCN(CC1CCC1)C(=O)C1=Cc2sc(CCCCCN)cc2N=C(N)C1 [TAZ-126]
485 nM	3560 nM	CCCN(OCC)C(=O)C1=Cc2sc(CC3CNC3)cc2N=C(N)C1 [TAZ-183, 5-amino-2-(azetidin-3-ylmethyl)-N-ethoxy-N-propyl-6H-thieno[3,2-b]azepine-7-carboxamide]
474 nM	4180 nM	CCCN(OCC)C(=O)C1=Cc2sc(CCC3CCN(C(=O)OC(C)(C)C)CC3)cc2N=C(N)C1 [TAZ-175]
384 nM	793 nM	CCCN(CCC)C(=O)C1=Cc2sc(CCCCCN(C)C)cc2N=C(N)C1 [TAZ-102]
326 nM	2960 nM	CCCN(Cc1ccc(CO)cc1)C(=O)C1=Cc2sccc2N=C(N)C1 [TAZ-96]
249 nM	915 nM	CCCN(OCC)C(=O)C1=Cc2sc(CCC3CCNCC3)cc2N=C(N)C1 [TAZ-176, 5-amino-N-ethoxy-2-[2-(4-piperidyl)ethyl]-N-propyl-6H-thieno[3,2-b]azepine-7-carboxamide]
214 nM	1940 nM	CCCN(Cc1ccc(CN(C)C)cc1)C(=O)C1=Cc2sccc2N=C(N)C1 [TAZ-87]
124 nM	714 nM	CCCN(OCC)C(=O)C1=Cc2sc(CC3CCNCC3)cc2N=C(N)C1 [TAZ-178]
101 nM	6200 nM	CCCN(OCC)C(=O)C1=Cc2sc(CN3CCNCC3)cc2N=C(N)C1 [TAZ-94]
